Data from patent US5972898A, “3',3-N-bis-substituted macrolide LHRH antagonists” (Abbott Laboratories, priority 1998, dated 1999).

Assays:
rat pituitary cells = biological target: T1, rat pituitary cells (Rattus norvegicus, UniProt P30969); assay: LH inhibition from rat pituitary cells for antagonist potency (pA2); assay type: cell-based; settings: negative log of antagonist concentration shifting the leuprolide response curve to two-fold higher concentration
T1 construct: endogenous in cells; host or cells: rat pituitary cells
T1 sequence (P30969 1-327): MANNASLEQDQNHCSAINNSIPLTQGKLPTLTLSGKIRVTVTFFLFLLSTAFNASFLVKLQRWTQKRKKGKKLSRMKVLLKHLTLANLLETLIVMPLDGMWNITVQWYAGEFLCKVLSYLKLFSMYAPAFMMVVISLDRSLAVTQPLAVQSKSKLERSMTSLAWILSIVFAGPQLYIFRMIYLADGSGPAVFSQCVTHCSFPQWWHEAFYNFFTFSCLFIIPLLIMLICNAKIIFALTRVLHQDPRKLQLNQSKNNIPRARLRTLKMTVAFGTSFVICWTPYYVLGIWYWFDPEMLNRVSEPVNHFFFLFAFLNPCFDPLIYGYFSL
Procedure: Representative compounds of the present invention were evaluated in in vitro tests for LHRH rat pituitary receptor binding (pKI) and for LH inhibition from rat pituitary cells for antagonist potency (pA2). The tests employed the methods detailed in F. Haviv, et al. J. Med. Chem., 2340-2344 (1989). The receptor binding affinity (pKI) is the negative equilibrium dissociation constants.
The pA2 value is the negative logarithm of the concentration of antagonist which shifts the response curve produced by the agonist leuprolide to two-fold higher concentration. Leuprolide is the LHRH agonist having the structure pyro-Glu^1 -His^2 -Trp^3 -Ser^4 -Tyr^5 -D-Leu^6 -Leu^7 -Arg^8 -Pro^9 -NHEt and is disclosed and claimed in U.S. Pat. No. 4,005,063. Typically pA2 values of 7.0 or greater are indicative of good LHRH antagonist potency.

[1] = biological target: T2, LHRH rat pituitary receptor (Rattus norvegicus, UniProt P30969); assay: LHRH rat pituitary receptor binding (pKI); settings: in vitro; for Ki: read-out: pKI (receptor binding affinity) (converted)
T2 construct: from tissue; host or cells: rat pituitary
T2 sequence (P30969 1-327): T1 sequence (P30969 1-327)
Procedure: Representative compounds of the present invention were evaluated in in vitro tests for LHRH rat pituitary receptor binding (pKI) and for LH inhibition from rat pituitary cells for antagonist potency (pA2). […] The receptor binding affinity (pKI) is the negative equilibrium dissociation constants.

Molecule	pA2 (rat pituitary cells)	pKI (receptor binding affinity) [1]	Kb (rat pituitary cells)	Ki [1]
CC[C@H]1OC(=O)[C@H](C)[C@@H](O[C@H]2C[C@@](C)(OC)[C@@H](O)[C@H](C)O2)[C@H](C)[C@@H](O[C@@H]2O[C@H](C)C[C@H](N(C3CCC3)C3CCC3)[C@H]2O)[C@](C)(OC)C[C@@H](C)C(=O)[C@H](C)[C@H]2N(CCc3ccc(Cl)cc3)C(=O)O[C@]12C [Example 4, 3',3'-N-Bisdesmethyl-3',3'-N-biscyclobutyl-11-deoxy-11-[carboxy-(4-chlorophenethylamino)]-6-O-methyl-erythromycin A 11,12-(cyclic carbamate)]			0.126 nM	2.4 nM
CC[C@H]1OC(=O)[C@H](C)[C@@H](O[C@H]2C[C@@](C)(OC)[C@@H](O)[C@H](C)O2)[C@H](C)[C@@H](O[C@@H]2O[C@H](C)C[C@H](N(CC3CC3)CC3CC3)[C@H]2O)[C@](C)(OC)C[C@@H](C)C(=O)[C@H](C)[C@H]2N(CCc3ccc(F)c(F)c3)C(=O)O[C@]12C [Example 17, 3',3'-N-Bisdesmethyl-3',3'-N-biscyclopropylmethyl-11-deoxy-11-[carboxy-(3,4-difluorophenethylamino)]-6-O-methyl-erytromycin A 11,12-(cyclic carbamate)]			1.55 nM	3.16 nM
CC[C@H]1OC(=O)[C@H](C)[C@@H](O[C@H]2C[C@@](C)(OC)[C@@H](O)[C@H](C)O2)[C@H](C)[C@@H](O[C@@H]2O[C@H](C)C[C@H](N(CC3CC3)C3CCC3)[C@H]2O)[C@](C)(OC)C[C@@H](C)C(=O)[C@H](C)[C@H]2N(CCc3ccc(F)c(Cl)c3)C(=O)O[C@]12C [Example 19, 3',3'-N-Bisdesmethyl-3'-N-cyclobutyl-3'-N-cyclopropylmethyl-11-deoxy-11-[carboxy-(3-chloro-4-fluorophenethylamino)]-6-O-methyl-erythromycin A 11,12-(cyclic carbamate)]		9.08		
CC[C@H]1OC(=O)[C@H](C)[C@@H](O[C@H]2C[C@@](C)(OC)[C@@H](O)[C@H](C)O2)[C@H](C)[C@@H](O[C@@H]2O[C@H](C)C[C@H](N(CCCc3ccccn3)CCCc3ccccn3)[C@H]2O)[C@](C)(OC)C[C@@H](C)C(=O)[C@H](C)[C@H]2N(CCc3ccc(Cl)c(Cl)c3)C(=O)O[C@]12C [Example 20, 3',3'-N-Bisdesmethyl-3',3'-N-bis-[3-(2-pyridyl)-propyl]-11-deoxy-11-[carboxy-(3,4-dichlorophenethylamino)]-6-O-methyl-erythromycin A 11,12-(cyclic carbamate)]				3.98 nM

Continued, values first:

pA2 (rat pituitary cells)	pKI (receptor binding affinity) [1]	Kb (rat pituitary cells)	Ki [1]	Molecule
8.34	9.40			3',3'-N-Bisdesmethyl-3',3'-N-biscyclobutyl-11-deoxy-11-[carboxy-(3,4-difluorophenethylamino)]-6-O-methyl-erythromycin A 11,12-(cyclic carbamate) [Example 18]
		5.37 nM	3.16 nM	CC[C@H]1OC(=O)[C@H](C)[C@@H](O[C@H]2C[C@@](C)(OC)[C@@H](O)[C@H](C)O2)[C@H](C)[C@@H](O[C@@H]2O[C@H](C)C[C@H](N(C3CCC3)C3CCC3)[C@H]2O)[C@](C)(OC)C[C@@H](C)C(=O)[C@H](C)[C@H]2N(CCc3ccc(Cl)c(Cl)c3)C(=O)O[C@]12C [Example 2]
		0.832 nM	0.832 nM	CC[C@H]1OC(=O)[C@H](C)[C@@H](O[C@H]2C[C@@](C)(OC)[C@@H](O)[C@H](C)O2)[C@H](C)[C@@H](O[C@@H]2O[C@H](C)C[C@H](N(C(C)C)C3CCC3)[C@H]2O)[C@](C)(OC)C[C@@H](C)C(=O)[C@H](C)[C@H]2N(CCc3ccc(Cl)cc3)C(=O)O[C@]12C [Example 5, 3',3'-N-Bisdesmethyl-3'-N-cyclobutyl-3'-N-isopropyl-11-deoxy-11-[carboxy-(4-chlorophenethylamino)]-6-O-methyl-erythromycin A 11,12-(cyclic carbamate)]
		0.295 nM	1.15 nM	CC[C@H]1OC(=O)[C@H](C)[C@@H](O[C@H]2C[C@@](C)(OC)[C@@H](O)[C@H](C)O2)[C@H](C)[C@@H](O[C@@H]2O[C@H](C)C[C@H](N(CC3CC3)CC3CC3)[C@H]2O)[C@](C)(OC)C[C@@H](C)C(=O)[C@H](C)[C@H]2N(CCc3ccc(Cl)c(F)c3)C(=O)O[C@]12C [Example 13, 3',3'-N-Bisdesmethyl-3',3'-N-biscyclopropylmethyl-11-deoxy-11-[carboxy-(4-chloro-3-fluorophenethylamino)]-6-O-methyl-erythromycin A 11,12-(cyclic carbamate)]
		0.759 nM	0.251 nM	CC[C@H]1OC(=O)[C@H](C)[C@@H](O[C@H]2C[C@@](C)(OC)[C@@H](O)[C@H](C)O2)[C@H](C)[C@@H](O[C@@H]2O[C@H](C)C[C@H](N(C3CCC3)C3CCC3)[C@H]2O)[C@](C)(OC)C[C@@H](C)C(=O)[C@H](C)[C@H]2N(CCc3ccc(F)c(Cl)c3)C(=O)O[C@]12C [Example 14, 3',3'-N-Bisdesmethyl-3',3'-N-biscyclobutyl-11-deoxy-11-[carboxy-(3-chloro-4-fluorophenethylamino)]-O-methyl-erythromycin A 11,12-(cyclic carbamate)]
			1.91 nM	CC[C@H]1OC(=O)[C@H](C)[C@@H](O[C@H]2C[C@@](C)(OC)[C@@H](O)[C@H](C)O2)[C@H](C)[C@@H](O[C@@H]2O[C@H](C)C[C@H](N(CCCc3ccncc3)CC3CC3)[C@H]2O)[C@](C)(OC)C[C@@H](C)C(=O)[C@H](C)[C@H]2N(CCc3ccc(Cl)c(Cl)c3)C(=O)O[C@]12C [Example 22, 3',3'-N-Bisdesmethyl-3'-N-cyclopropylmethyl-3'-N-[3-(4-pyridyl)propyl]-11-deoxy-11-[carboxy-(3,4-dichlorophenethylamino)]-6-O-methyl-erythromycin A 11,12-(cyclic carbamate)]
